Measurements taken from patent US20250353842A1, “BICYCLIC AMINE CDK12 INHIBITORS” (Incyte Corporation, priority 2022, published 2025).

Target: CDK12 complexed with Cyclin K (Homo sapiens (Human), UniProt Q9NYV4)
Experiment: CDK enzymatic assay (HTRF, LANCE Ultra kinase assay)
Assay type: biochemical
Conditions: 60 minutes pre-incubation, 1 mM ATP
Protocol: The following activity of the CDK enzymes in complex with their respective cyclins we assayed: CDK1 complexed with Cyclin B1; CDK2 complexed with Cyclin E1; CDK4 complexed with Cyclin D1; CDK6 complexed with Cyclin D1; CDK6 complexed with Cyclin D3; CDK9 complexed with Cyclin T1; CDK7 complexed with Cyclin H/MAT1; CDK2 complexed with Cyclin A2; CDK5 complexed with p35; CDK12 complexed with Cyclin K; CDK13 complexed with Cyclin K. These in vitro enzyme activity are assayed using homogeneous time-resolved energy transfer (HTRF), which measures phosphorylation of a peptide substrate. The LANCE® Ultra kinase assay (PerkinElmer) uses a ULight™-labeled EIF4E-binding protein 1 (THR37/46) peptide (DYSTTPGGTLFSTTPGTRI) (SEQ ID NO: 1) substrate and a Europium-labeled anti-phospho-4E-BP1 antibody (CDK2, CDK1, CDK4, CDK6, CDK9, CDK12, CDK13) or ULight™-labeled Myelin Basic Protein peptide (VTPRTPPP) (SEQ ID NO: 2) substrate and a Europium-labeled anti-phospho-MBP antibody (CDK7). Each CDK enzyme activity assays utilized human CDK co-expressed as N-terminal GST-tagged protein with its full length cyclin partner using a baculovirus expression system.
Enzyme was pre-incubated with compounds for 30 minutes (CDK1,2,4,6,9) or 60 minutes (CDK7, CDK12, CDK13) prior to addition of ATP and Ulight-peptide (1 mM and 50 nM final, respectively), in assay buffer containing 50 mM HEPES pH 7.5, 1 mM EGTA, 10 mM MgCl2, 2 mM DTT, 0.05 mg/mL BSA, and 0.01% Tween 20.
The reaction was then incubated for 60-90 minutes at room temperature. The reactions were stopped by the addition of EDTA and Europium labeled antibody, for a final concentration of 15 mM and 1.0-1.5 nM, respectively. HTRF signals were read after 15-120 minutes. A ratio of fluorescence transferred to the labeled substrate (665 nm) relative to fluorescence of the Europium donor (620 nm) represents the extent of phosphorylation. Ratios for treated wells were normalized to DMSO only (100% activity) and no enzyme (0% activity) controls. Normalized data was analyzed using a three or four parameter dose response curve to determine IC50 for each compound and are shown in Table A. Control reference inhibitors were included on each plate.

Chain of CDK12 complexed with Cyclin K (Q9NYV4 whole entry): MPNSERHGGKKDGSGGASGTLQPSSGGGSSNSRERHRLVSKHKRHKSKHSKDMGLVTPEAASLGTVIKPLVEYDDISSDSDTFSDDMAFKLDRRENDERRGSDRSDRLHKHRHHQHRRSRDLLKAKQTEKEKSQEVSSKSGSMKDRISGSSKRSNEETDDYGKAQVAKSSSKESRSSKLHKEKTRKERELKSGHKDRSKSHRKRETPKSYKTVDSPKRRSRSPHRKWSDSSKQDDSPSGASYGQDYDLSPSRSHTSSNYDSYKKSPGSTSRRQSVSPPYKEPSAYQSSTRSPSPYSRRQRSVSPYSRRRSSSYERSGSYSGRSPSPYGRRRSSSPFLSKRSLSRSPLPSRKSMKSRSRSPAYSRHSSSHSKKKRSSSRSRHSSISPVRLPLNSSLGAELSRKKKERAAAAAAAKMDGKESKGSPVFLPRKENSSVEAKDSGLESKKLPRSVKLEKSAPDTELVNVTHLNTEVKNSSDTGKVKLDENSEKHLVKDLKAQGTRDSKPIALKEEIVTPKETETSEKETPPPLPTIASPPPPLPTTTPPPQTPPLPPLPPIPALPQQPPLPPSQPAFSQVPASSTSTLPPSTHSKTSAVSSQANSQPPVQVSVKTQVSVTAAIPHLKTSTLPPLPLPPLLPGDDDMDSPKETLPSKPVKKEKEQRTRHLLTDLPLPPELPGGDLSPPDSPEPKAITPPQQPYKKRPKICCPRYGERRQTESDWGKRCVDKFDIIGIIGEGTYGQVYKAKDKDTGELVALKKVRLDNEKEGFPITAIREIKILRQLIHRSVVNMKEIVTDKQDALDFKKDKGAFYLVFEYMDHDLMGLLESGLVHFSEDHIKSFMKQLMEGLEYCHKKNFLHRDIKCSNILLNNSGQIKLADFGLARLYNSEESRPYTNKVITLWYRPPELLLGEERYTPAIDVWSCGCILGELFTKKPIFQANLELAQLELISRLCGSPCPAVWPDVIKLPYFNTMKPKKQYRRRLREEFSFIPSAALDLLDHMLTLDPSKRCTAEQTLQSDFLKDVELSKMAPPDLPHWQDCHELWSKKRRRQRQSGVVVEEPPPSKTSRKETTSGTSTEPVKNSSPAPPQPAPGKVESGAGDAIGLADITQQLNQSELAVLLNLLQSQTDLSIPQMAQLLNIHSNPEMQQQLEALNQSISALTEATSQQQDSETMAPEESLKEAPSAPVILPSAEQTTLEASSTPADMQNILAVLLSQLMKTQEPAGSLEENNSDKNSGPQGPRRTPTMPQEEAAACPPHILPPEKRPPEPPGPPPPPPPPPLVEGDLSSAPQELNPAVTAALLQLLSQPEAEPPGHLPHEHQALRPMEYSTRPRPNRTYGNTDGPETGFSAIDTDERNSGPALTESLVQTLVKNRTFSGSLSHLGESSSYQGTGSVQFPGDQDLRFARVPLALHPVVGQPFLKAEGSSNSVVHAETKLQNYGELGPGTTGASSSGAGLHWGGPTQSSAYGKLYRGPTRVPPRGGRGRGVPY
Chain of CDK12 complexed with Cyclin K (O75909 whole entry partner): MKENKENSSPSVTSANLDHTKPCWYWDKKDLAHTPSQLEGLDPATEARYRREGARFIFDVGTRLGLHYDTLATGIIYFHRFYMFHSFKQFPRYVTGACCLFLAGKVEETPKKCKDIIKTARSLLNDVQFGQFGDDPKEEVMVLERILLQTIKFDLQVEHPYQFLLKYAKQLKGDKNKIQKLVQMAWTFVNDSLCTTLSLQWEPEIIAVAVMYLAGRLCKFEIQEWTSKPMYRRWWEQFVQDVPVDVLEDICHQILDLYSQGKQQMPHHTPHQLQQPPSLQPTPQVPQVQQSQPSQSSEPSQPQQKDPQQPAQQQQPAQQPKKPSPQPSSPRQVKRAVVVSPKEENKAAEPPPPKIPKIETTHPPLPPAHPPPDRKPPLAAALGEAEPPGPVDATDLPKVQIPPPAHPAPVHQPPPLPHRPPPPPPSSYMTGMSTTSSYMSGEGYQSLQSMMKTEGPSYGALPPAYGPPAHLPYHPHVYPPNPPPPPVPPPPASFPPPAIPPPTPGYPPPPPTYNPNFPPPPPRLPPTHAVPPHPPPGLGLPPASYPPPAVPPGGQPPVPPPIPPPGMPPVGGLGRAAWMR

Row | IC50 | Compound
1 | < 50 nM | N#Cc1cnc2c(c1)ncn2[C@H]1CCC[C@@H](Nc2ncc(Cl)c(-c3cnn(CC(F)F)c3)n2)C1 [Example 14, 3-((1S,3R)-3-((5-Chloro-4-(1-(2,2-difluoroethyl)-1H-pyrazol-4-yl)pyrimidin-2-yl)amino)cyclohexyl)-3H-imidazo[4,5-b]pyridine-6-carbonitrile]
2 | < 50 nM | N#Cc1cnc(N[C@@H]2CCC[C@H](n3cnc4cccnc43)C2)nc1-c1cnn(CC(F)F)c1 [Example 11, 2-(((1R,3S)-3-(3H-Imidazo[4,5-b]pyridin-3-yl)cyclohexyl)amino)-4-(1-(2,2-difluoroethyl)-1H-pyrazol-4-yl)pyrimidine-5-carbonitrile]
3 | < 50 nM | N#Cc1cnc(N[C@@H]2CCC[C@H](n3cnc4cc(F)cc(Br)c43)C2)nc1-c1cnn(CC(F)F)c1 [Example 40, 2-(((1R,3S)-3-(7-Bromo-5-fluoro-1H-benzo[d]imidazol-1-yl)cyclohexyl)amino)-4-(1-(2,2-difluoroethyl)-1H-pyrazol-4-yl)pyrimidine-5-carbonitrile]
4 | > 500 nM | Cn1nccc1-c1nc(N[C@@H]2CCC[C@H](n3cnc4cccnc43)C2)ncc1C#N [Example 22, 2-(((1R,3S)-3-(3H-Imidazo[4,5-b]pyridin-3-yl)cyclohexyl)amino)-4-(1-methyl-1H-pyrazol-5-yl)pyrimidine-5-carbonitrile]
5 | < 50 nM | N#Cc1cnc(N[C@@H]2CCC[C@H](n3cnc4cccc(C#N)c43)C2)nc1-c1cnn(CC(F)F)c1 [13/13A, 1-((1S,3R)-3-((5-Cyano-4-(1-(2,2-difluoroethyl)-1H-pyrazol-4-yl)pyrimidin-2-yl)amino)cyclohexyl)-1H-benzo[d]imidazole-7-carbonitrile]
6 | < 50 nM | N#Cc1cnc2c(c1)ncn2[C@H]1CCC[C@@H](Nc2ncc(C#N)c(-c3cnn(C4CCC4)c3)n2)C1 [Example 38, 3-((1S,3R)-3-((5-Cyano-4-(1-cyclobutyl-1H-pyrazol-4-yl)pyrimidin-2-yl)amino)cyclohexyl)-3H-imidazo[4,5-b]pyridine-6-carbonitrile]
7 | < 50 nM | FC(F)Cn1cc(-c2nc(N[C@@H]3CCC[C@H](n4cnc5cnccc54)C3)ncc2C(F)(F)F)cn1 [Example 7, N-((1R,3S)-3-(1H-Imidazo[4,5-c]pyridin-1-yl)cyclohexyl)-4-(1-(2,2-difluoroethyl)-1H-pyrazol-4-yl)-5-(trifluoromethyl)pyrimidin-2-amine]
8 | < 50 nM | FC(F)Cn1cc(-c2nc(N[C@@H]3CCC[C@H](n4cnc5cc(-c6cn[nH]c6)cnc54)C3)ncc2C(F)(F)F)cn1 [Example 80, N-((1R,3S)-3-(6-(1H-Pyrazol-4-yl)-3H-imidazo[4,5-b]pyridin-3-yl)cyclohexyl)-4-(1-(2,2-difluoroethyl)-1H-pyrazol-4-yl)-5-(trifluoromethyl)pyrimidin-2-amine]
9 | > 500 nM | Cc1nn(C)cc1-c1nc(N[C@@H]2CCC[C@H](n3cnc4cccnc43)C2)ncc1C#N [Example 19, 2-(((1R,3S)-3-(3H-Imidazo[4,5-b]pyridin-3-yl)cyclohexyl)amino)-4-(1,3-dimethyl-1H-pyrazol-4-yl)pyrimidine-5-carbonitrile]
10 | < 50 nM | N#Cc1cnc2c(c1)ncn2[C@H]1CCC[C@@H](Nc2ncc(C(F)(F)F)c(-c3cnn(CC(F)F)c3)n2)C1 [Example 1, 3-((1S,3R)-3-((4-(1-(2,2-Difluoroethyl)-1H-pyrazol-4-yl)-5-(trifluoromethyl)pyrimidin-2-yl)amino)cyclohexyl)-3H-imidazo[4,5-b]pyridine-6-carbonitrile]
11 | < 50 nM | FC(F)Cn1cc(-c2nc(N[C@@H]3CCC[C@H](n4cnc5cc(-c6cccnc6)cnc54)C3)ncc2C(F)(F)F)cn1 [Example 82, 4-(1-(2,2-Difluoroethyl)-1H-pyrazol-4-yl)-N-((1R,3S)-3-(6-(pyridin-3-yl)-3H-imidazo[4,5-b]pyridin-3-yl)cyclohexyl)-5-(trifluoromethyl)pyrimidin-2-amine]
12 | < 50 nM | C=C(C)c1cnc2c(c1)ncn2[C@H]1CCC[C@@H](Nc2ncc(C(F)(F)F)c(-c3cnn(CC(F)F)c3)n2)C1 [Example 78, 4-(1-(2,2-Difluoroethyl)-1H-pyrazol-4-yl)-N-((1R,3S)-3-(6-(prop-1-en-2-yl)-3H-imidazo[4,5-b]pyridin-3-yl)cyclohexyl)-5-(trifluoromethyl)pyrimidin-2-amine]
13 | < 50 nM | CC(C)n1cc(-c2nc(N[C@@H]3CCC[C@H](n4cnc5cc(C#N)cnc54)C3)ncc2C#N)cn1 [Example 72, 3-((1S,3R)-3-((5-Cyano-4-(1-isopropyl-1H-pyrazol-4-yl)pyrimidin-2-yl)amino)cyclohexyl)-3H-imidazo[4,5-b]pyridine-6-carbonitrile]
14 | 50 to 500 nM | N#Cc1cnc2c(c1)ncn2[C@H]1CCC[C@@H](Nc2ncc(-c3cn[nH]c3)c(-c3cnn(CC(F)F)c3)n2)C1 [Example 57, 3-((1S,3R)-3-((4-(1-(2,2-Difluoroethyl)-1H-pyrazol-4-yl)-5-(1H-pyrazol-4-yl)pyrimidin-2-yl)amino)cyclohexyl)-3H-imidazo[4,5-b]pyridine-6-carbonitrile]
15 | < 50 nM | CN(C)c1cnc2c(c1)ncn2[C@H]1CCC[C@@H](Nc2ncc(C(F)(F)F)c(-c3cnn(CC(F)F)c3)n2)C1 [Example 84, 3-((1S,3R)-3-((4-(1-(2,2-Difluoroethyl)-1H-pyrazol-4-yl)-5-(trifluoromethyl)pyrimidin-2-yl)amino)cyclohexyl)-N,N-dimethyl-3H-imidazo[4,5-b]pyridin-6-amine]
16 | 50 to 500 nM | N#Cc1cnc(N[C@@H]2CCC[C@H](n3cnc4cccnc43)C2)nc1-c1cnn2c1OCCC2 [Example 25, 2-(((1R,3S)-3-(3H-Imidazo[4,5-b]pyridin-3-yl)cyclohexyl)amino)-4-(6,7-dihydro-5H-pyrazolo[5,1-b][1,3]oxazin-3-yl)pyrimidine-5-carbonitrile]
17 | < 50 nM | CN1CCN(c2cnc3c(c2)ncn3[C@H]2CCC[C@@H](Nc3ncc(C#N)c(-c4cnn(CC(F)F)c4)n3)C2)CC1 [Example 75, 4-(1-(2,2-Difluoroethyl)-1H-pyrazol-4-yl)-2-(((1R,3S)-3-(6-(4-methylpiperazin-1-yl)-3H-imidazo[4,5-b]pyridin-3-yl)cyclohexyl)amino)pyrimidine-5-carbonitrile]
18 | < 50 nM | N#Cc1cnc(N[C@@H]2CCC[C@H](n3cnc4cnc(Cl)c(Br)c43)C2)nc1-c1cnn(CC(F)F)c1 [Example 42, 2-(((1R,3S)-3-(7-Bromo-6-chloro-1H-imidazo[4,5-c]pyridin-1-yl)cyclohexyl)amino)-4-(1-(2,2-difluoroethyl)-1H-pyrazol-4-yl)pyrimidine-5-carbonitrile]
19 | < 50 nM | N#Cc1cnc(N[C@@H]2CCC[C@H](n3cnc4cc(N5CCOCC5)cnc43)C2)nc1-c1cnn(CC(F)F)c1 [Example 76, 4-(1-(2,2-Difluoroethyl)-1H-pyrazol-4-yl)-2-(((1R,3S)-3-(6-morpholino-3H-imidazo[4,5-b]pyridin-3-yl)cyclohexyl)amino)pyrimidine-5-carbonitrile]
20 | < 50 nM | N#Cc1cnc2c(c1)ncn2[C@H]1CCC[C@@H](Nc2ncc(C#N)c(-c3cnn(C4CC4)c3)n2)C1 [Example 71, 3-((1S,3R)-3-((5-Cyano-4-(1-cyclopropyl-1H-pyrazol-4-yl)pyrimidin-2-yl)amino)cyclohexyl)-3H-imidazo[4,5-b]pyridine-6-carbonitrile]
21 | > 500 nM | N#Cc1cnc2c(c1)ncn2[C@H]1CC[C@@H](Nc2ncc(C(F)(F)F)c(-c3cnn(CC(F)F)c3)n2)C1 [Example 2, 3-((1S,3R)-3-((4-(1-(2,2-Difluoroethyl)-1H-pyrazol-4-yl)-5-(trifluoromethyl)pyrimidin-2-yl)amino)cyclopentyl)-3H-imidazo[4,5-b]pyridine-6-carbonitrile]
22 | < 50 nM | Cc1nccc2c1ncn2[C@H]1CCC[C@@H](Nc2ncc(C#N)c(-c3cnn(CC(F)F)c3)n2)C1 [Example 85, 4-(1-(2,2-Difluoroethyl)-1H-pyrazol-4-yl)-2-(((1R,3S)-3-(4-methyl-1H-imidazo[4,5-c]pyridin-1-yl)cyclohexyl)amino)pyrimidine-5-carbonitrile]
23 | < 50 nM | CC(C)n1cc(-c2nc(N[C@@H]3CCC[C@H](n4cnc5cncc(C#N)c54)C3)ncc2C#N)cn1 [Example 33, 1-((1S,3R)-3-((5-Cyano-4-(1-isopropyl-1H-pyrazol-4-yl)pyrimidin-2-yl)amino)cyclohexyl)-1H-imidazo[4,5-c]pyridine-7-carbonitrile]
24 | < 50 nM | Cc1ncc(C#N)c2c1ncn2[C@H]1CCC[C@@H](Nc2ncc(C#N)c(-c3cnn(CC(F)F)c3)n2)C1 [Example 48, 1-((1S,3R)-3-((5-Cyano-4-(1-(2,2-difluoroethyl)-1H-pyrazol-4-yl)pyrimidin-2-yl)amino)cyclohexyl)-4-methyl-1H-imidazo[4,5-c]pyridine-7-carbonitrile]
